Assay results taken from article PMC9649612, “Molecular docking and biochemical validation of (-)-syringaresinol-4-O-β-D-apiofuranosyl-(1→2)-β-D-glucopyranoside binding to an allosteric site in monoamine transporters” (Frontiers in Pharmacology, 2022).

Legend:
WT-hNET = target: T1, WT-hNET (Homo sapiens, UniProt P23975); assay: APP+ transport (uptake) in HeLa cells expressing WT-hNET; assay type: cell-based; details: hNET; kinetic analysis
T1 construct: expressed in transfected cells; host or cells: HeLa
Protocol: (§1) HeLa cells were cultured in Dulbecco’s Modified Eagle’s Medium supplemented with 10% fetal bovine serum, 100 units/ml penicillin, and 100 μg/ml streptomycin at 37°C in a humidified 5% CO2 incubator. Cells were plated in a 6-well culture plate and grown overnight. Cells at ∼70% confluence were transfected with hSERT, hDAT, or hNET cDNA in pcDNA3.1 by lipofectamine 2000. Transfected cells were incubated for 24 h at 37°C with 5% CO2 and then transferred into a 12-well plate placed with polylysine coated slides. After grown for additional 12–16 h, the cells were assayed for APP^+ or ASP^+ fluorescence image acquisition.
(§2) The cells expressing WT or mutants of hSERT, hDAT, or hNET were wet mounted on polylysine coated glass slides in 12-well plates and applied for the indicated treatments. […] The extent of APP^+ accumulated in the cells was determined by confocal imaging analysis. ASP^+ binding to SERT in the cell membrane was measured with digitonin-permeabilized cells ([Li M. et al., 2022a]). […] After removing excess ASP^+ by rapid washing three times, ASP^+ binding was determined by confocal imaging analysis.
(§3) Images were analyzed using Zen Blue software.
(§4) Nonlinear regression fits of experimental and calculated data were performed with Origin (Origin Lab). […]

WT-hSERT = target: T2, WT-hSERT (Homo sapiens, UniProt P31645); design: method as in our previous experiments; details: ref our previous experiments, read-out: Km for APP+ transport; cited from earlier work
T2 construct: expressed in transfected cells; host or cells: HeLa (ATCC CCL-2), transient, pcDNA3.1

WT-hDAT = target: T3, WT-hDAT (Homo sapiens, UniProt Q01959); assay: APP+ transport (uptake) in HeLa cells expressing WT-hDAT; assay type: cell-based; details: hDAT; kinetic analysis
T3 construct: expressed in transfected cells; host or cells: HeLa
Protocol: as §1, §2, §3, §4

T2 sequence (P31645 whole entry): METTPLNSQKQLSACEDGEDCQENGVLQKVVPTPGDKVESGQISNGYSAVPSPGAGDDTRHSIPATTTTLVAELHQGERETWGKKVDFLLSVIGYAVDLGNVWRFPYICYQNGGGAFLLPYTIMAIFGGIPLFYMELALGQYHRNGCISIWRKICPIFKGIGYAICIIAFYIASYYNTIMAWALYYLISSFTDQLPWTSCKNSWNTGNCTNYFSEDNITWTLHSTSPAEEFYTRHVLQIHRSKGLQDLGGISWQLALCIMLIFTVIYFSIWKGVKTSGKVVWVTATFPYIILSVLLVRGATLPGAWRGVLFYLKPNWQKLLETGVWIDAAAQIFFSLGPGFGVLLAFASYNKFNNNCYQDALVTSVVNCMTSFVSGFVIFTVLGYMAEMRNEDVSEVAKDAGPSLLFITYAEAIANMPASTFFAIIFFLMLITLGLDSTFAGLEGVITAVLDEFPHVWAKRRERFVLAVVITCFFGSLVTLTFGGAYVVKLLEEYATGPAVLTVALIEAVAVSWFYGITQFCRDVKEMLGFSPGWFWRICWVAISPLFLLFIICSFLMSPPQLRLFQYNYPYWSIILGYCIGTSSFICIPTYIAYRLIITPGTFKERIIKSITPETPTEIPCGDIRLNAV
T3 sequence (Q01959 whole entry): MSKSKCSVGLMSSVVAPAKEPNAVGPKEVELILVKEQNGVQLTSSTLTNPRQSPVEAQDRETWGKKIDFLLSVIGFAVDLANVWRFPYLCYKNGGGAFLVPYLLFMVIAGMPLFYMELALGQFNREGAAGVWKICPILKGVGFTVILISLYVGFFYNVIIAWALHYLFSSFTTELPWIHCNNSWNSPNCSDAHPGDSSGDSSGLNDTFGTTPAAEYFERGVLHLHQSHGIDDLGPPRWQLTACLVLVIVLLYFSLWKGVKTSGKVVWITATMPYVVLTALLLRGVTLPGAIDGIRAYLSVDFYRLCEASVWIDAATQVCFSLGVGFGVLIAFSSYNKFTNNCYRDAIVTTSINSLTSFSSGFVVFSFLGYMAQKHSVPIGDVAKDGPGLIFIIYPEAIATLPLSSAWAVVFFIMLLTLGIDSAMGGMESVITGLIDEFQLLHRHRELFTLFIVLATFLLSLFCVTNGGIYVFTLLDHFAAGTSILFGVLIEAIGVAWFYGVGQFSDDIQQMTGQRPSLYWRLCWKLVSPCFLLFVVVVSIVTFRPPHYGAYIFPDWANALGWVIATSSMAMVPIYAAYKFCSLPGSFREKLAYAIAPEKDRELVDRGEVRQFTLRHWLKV
T1 sequence (P23975 whole entry): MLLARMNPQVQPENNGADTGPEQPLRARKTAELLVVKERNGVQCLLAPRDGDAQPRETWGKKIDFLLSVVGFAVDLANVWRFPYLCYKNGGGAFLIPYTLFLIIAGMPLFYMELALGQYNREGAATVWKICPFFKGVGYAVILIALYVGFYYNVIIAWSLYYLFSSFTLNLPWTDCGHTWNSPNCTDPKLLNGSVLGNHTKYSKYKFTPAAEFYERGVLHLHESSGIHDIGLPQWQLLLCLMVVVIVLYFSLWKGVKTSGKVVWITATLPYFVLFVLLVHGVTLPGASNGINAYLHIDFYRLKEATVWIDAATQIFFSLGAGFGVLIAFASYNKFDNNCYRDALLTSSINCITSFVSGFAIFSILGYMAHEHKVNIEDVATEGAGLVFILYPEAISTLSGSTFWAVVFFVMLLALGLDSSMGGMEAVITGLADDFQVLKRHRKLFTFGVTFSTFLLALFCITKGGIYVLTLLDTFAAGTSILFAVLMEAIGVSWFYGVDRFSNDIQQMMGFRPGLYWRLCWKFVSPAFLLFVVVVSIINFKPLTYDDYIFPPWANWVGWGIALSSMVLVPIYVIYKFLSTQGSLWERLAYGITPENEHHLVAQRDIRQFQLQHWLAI

Substance: 4-[4-(Dimethylamino)phenyl]-1-methylpyridinium [APP^+, reference compound]
- Km (WT-hNET): 1560 ± 220 nM
- Km (WT-hSERT): 2630 ± 160 nM
- Km (WT-hDAT): 2890 ± 480 nM
